The target in one assay is T1, SMARCA2 (Homo sapiens, UniProt P51531).
T1 construct: endogenous in cells; host or cells: NCI-H520 (given as NCIH520 / NCIH1520 / H520)
As to the kind of experiment: SMARCA2 protein degradation in NCIH520 cells by In Cell Western (ICW). It counts as cell-based. The following applies: highest concentration 1 μM; for DC50: H520 cells, overnight incubation (maximum 18 hours), read-out: DC50 (SM2_H520): SMARCA2 degradation potency; for Dmax: NCI-H520, overnight incubation (maximum 18 hours), read-out: Dmax % (SM2_H520): maximum SMARCA2 degradation within the concentrations tested. The protocol:
(§1) Compounds were dissolved in DMSO to make 10 mM stock and 3-fold series dilutions were further conducted keeping the highest concentration 10 μM. NCIH11693 and NCIH1520 cells were maintained in PRMI 1640 medium (Corning Cellgro, Catalog #: 10-040-CV) supplemented with 10% v/v FBS (GE Healthcare, Catalog #: SH30910.03) by splitting 1:3 twice a week.
(§2) SMACRA2 and SMARCA4 Protein Degradation DC50 Values in NCIH1693 and NCIH520 Cells by in Cell Western (ICW) Analysis.
(§3) Cells were trypsinized and 30 thousand cells/well were seeded into 384-well plates and were allowed to grow for 1-2 hours at 37° C. Eight-point, 3-fold serial dilutions of compounds from 0.5 mM stocks were added to the cells (using digital Dispenser D300-Tecan, keeping highest concentration 1 μM and normalizing with DMSO at the highest dispensed volume). Plates were incubated at 37° C. for overnight (maximum 18 hours). Cells incubated with DMSO was used as a vehicle control.
(§4) To perform In Cell Western, medium was removed from all the wells leaving cells attached to the surface. After removing the medium, cells were fixed within the plates with 40 μL of 4% formaldehyde by incubating at room temperature for 30 minutes, and then permeabilized with wash buffer (1×PBS with 0.1% Triton X-100) by washing the plate 5 times with 50 μL/well. Before labeling with primary antibodies, cells were blocked with 30 μL/well of blocking buffer (Licor Odyssey blocking buffer PBS #927-40000) for 30 minutes at room temperature. To measure SMARCA2 or SMARCA4 proteins, cells were labeled with 20 μL/well of anti SMARCA2 or SMACRA4 antibodies (Cell Signaling BRM #11966S 1:800, Cell Signaling BRG #49360S 1:800) diluted in Li-Cor Odyssey blocking buffer-PBS #927-40000, followed by overnight incubation at 4° C.
(§5) The next day, plates were washed 5×5 minutes with 50 μL/well of washing buffer to remove all the excess primary antibody and then 20 μL from a mixture of secondary antibody and fluorescent DNA specific dye (Goat anti rabbit 1:500 IRDye-800CW #92632211, and DRAQ5™ 1:2000-#ab108410) was added to each well. Plates were incubated for 1 hour at room temperature with gentle rocking. Cells were washed 5 times with 50 μL/well wash buffer, followed by one last wash with DI water, followed by 10 mins drying at 37° C. oven before scanning. Plates were scanned using Li-Cor Odyssey CLx imaging system to acquire integrated intensities at 700 nm and 800 nm. SMARCA signals were normalized to total cell count and then these normalized values were used to calculate the percent degradation relative to DMSO control and maximum inhibition. DC50s were calculated by using the GraphPad Prism4 program based on sigmoidal dose response equation ([Inhibitor] vs. normalized response-Variable slope).
(§6) In Table 36, the DC50/Dmax% (SM2_H520) refers to SMARCA2 degradation potency/maximum SMARCA2 degradation within the concentrations in H520 cells and DC50/Dmax% (SM4_H520) refers to SMARCA4 degradation potency/maximum SMARCA4 degradation within the concentrations tested in H520 cells.

For another assay, the target named is T2, SMARCA4 (Homo sapiens, UniProt P51532).
T2 construct: endogenous in cells; host or cells: NCI-H520 (given as NCIH520 / NCIH1520 / H520)
T2 sequence (P51532 whole entry): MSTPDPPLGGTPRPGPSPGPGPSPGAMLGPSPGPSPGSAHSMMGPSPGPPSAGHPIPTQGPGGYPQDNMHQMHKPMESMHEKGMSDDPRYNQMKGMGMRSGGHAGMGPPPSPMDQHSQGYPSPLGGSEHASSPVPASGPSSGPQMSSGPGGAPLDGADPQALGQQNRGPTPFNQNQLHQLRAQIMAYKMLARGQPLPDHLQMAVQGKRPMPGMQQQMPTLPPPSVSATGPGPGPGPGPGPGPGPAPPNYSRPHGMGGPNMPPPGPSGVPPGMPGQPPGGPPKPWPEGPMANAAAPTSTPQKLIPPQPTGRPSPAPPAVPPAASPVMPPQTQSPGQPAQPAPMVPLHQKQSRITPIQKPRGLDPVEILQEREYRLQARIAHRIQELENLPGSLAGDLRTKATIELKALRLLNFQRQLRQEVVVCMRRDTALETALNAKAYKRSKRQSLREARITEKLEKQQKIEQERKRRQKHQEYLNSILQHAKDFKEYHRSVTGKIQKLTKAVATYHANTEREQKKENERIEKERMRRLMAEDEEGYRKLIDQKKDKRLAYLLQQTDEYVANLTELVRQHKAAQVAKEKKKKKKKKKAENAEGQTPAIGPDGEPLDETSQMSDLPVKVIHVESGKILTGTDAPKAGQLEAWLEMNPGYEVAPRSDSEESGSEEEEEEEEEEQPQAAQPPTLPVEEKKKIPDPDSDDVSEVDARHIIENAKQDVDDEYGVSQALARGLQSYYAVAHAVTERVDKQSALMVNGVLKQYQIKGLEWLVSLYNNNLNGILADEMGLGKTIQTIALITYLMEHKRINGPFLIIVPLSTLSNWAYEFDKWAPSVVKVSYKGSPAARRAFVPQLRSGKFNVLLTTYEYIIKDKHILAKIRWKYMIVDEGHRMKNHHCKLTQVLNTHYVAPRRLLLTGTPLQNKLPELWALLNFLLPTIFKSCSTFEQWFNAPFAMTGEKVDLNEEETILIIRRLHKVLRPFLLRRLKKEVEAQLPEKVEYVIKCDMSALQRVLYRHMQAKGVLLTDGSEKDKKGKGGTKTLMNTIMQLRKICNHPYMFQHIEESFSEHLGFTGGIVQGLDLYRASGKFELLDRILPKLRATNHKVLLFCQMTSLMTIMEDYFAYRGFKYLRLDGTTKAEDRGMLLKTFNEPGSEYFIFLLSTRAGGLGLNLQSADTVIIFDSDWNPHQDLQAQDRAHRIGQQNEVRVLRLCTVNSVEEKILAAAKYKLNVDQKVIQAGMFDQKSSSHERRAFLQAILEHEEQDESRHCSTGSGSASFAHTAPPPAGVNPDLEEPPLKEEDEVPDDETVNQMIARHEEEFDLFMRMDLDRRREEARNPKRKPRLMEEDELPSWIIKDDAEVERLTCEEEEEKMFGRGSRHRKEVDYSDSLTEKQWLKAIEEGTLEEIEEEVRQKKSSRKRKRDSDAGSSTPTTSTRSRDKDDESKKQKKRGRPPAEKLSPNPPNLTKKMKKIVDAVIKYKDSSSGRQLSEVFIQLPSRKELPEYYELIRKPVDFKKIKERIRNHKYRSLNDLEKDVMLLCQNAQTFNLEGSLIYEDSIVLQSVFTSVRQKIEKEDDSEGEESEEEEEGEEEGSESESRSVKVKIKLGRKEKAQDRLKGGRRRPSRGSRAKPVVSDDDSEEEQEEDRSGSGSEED
As to the kind of experiment: SMARCA4 protein degradation in NCIH520 cells by In Cell Western (ICW). It counts as cell-based. The conditions noted are these: highest concentration 1 μM; for DC50: H520 cells, overnight incubation (maximum 18 hours), read-out: DC50 (SM4_H520): SMARCA4 degradation potency; for Dmax: NCI-H520, overnight incubation (maximum 18 hours), read-out: Dmax % (SM4_H520): maximum SMARCA4 degradation within the concentrations tested. The protocol: as §1, §2, §3, §4, §5, §6

T1 sequence (P51531 whole entry): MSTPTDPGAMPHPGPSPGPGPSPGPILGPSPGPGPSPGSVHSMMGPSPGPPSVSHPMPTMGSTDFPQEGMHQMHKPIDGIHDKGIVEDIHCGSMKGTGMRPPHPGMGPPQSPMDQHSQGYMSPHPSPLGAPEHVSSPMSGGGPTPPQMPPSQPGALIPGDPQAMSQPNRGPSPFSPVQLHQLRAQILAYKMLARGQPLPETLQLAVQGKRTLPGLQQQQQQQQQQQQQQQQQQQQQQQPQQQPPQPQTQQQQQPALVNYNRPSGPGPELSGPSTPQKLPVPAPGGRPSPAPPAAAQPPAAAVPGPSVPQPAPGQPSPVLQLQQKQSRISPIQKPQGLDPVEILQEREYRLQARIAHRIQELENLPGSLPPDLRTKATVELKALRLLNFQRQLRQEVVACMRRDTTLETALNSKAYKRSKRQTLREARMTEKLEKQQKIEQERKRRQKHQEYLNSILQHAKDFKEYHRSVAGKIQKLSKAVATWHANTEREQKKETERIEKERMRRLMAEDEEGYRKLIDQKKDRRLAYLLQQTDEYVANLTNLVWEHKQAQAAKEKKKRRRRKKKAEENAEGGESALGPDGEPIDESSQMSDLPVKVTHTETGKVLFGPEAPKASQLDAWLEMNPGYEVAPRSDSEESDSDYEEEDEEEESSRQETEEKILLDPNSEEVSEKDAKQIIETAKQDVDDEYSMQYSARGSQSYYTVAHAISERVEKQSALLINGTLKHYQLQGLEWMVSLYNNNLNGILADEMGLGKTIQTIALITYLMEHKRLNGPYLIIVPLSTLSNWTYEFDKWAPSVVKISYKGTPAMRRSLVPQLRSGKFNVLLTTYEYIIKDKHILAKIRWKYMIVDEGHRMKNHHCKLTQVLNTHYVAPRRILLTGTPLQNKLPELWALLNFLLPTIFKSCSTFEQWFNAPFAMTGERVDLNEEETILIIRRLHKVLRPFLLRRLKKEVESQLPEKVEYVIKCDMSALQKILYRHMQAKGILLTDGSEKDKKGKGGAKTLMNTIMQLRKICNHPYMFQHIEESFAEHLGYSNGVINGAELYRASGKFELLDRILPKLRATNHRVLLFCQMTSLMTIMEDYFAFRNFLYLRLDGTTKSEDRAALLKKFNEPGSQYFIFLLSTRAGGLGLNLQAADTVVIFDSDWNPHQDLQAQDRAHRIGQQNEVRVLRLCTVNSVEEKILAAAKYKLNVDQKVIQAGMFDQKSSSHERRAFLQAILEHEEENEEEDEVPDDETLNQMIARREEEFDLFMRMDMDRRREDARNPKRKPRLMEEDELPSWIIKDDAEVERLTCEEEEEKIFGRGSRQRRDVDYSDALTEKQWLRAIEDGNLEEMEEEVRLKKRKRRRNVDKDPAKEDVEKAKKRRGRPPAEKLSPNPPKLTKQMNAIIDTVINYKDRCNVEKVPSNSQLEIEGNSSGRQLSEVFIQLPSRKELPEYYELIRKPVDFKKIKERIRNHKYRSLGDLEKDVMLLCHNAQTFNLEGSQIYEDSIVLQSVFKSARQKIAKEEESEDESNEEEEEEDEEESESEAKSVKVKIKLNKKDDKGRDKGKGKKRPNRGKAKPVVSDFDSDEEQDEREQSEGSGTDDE

For orientation: DC50 means the midpoint of the concentration-degradation curve. Consider `O=C1CCC(N2C(=O)c3ccc(N4CCN(CCCN5CCC(N6CCN7c8cc(-c9ccccc9O)nnc8NC[C@H]7C6)CC5)CC4)cc3C2=O)C(=O)N1` (stereo partly drawn) [Example 11, 2-(2,6-Dioxopiperidin-3-yl)-5-(4-(3-(4-((S)-2-(2-hydroxyphenyl)-5,6,6a,7,9,10-hexahydro-8H-pyrazino[1′,2′:4,5]1pyrazino[2,3-c]pyridazin-8-yl)piperidin-1-yl)propyl)piperazin-1-yl) isoindoline-1,3-dione], for which, on SMARCA2, the DC50 was below 0.1 µM and the Dmax was above 75%. Further, at SMARCA4, the DC50 was below 0.1 µM and the Dmax is above 75%.
For `O=C1CCC(N2Cc3cc(CCCN4CCC(c5cnc(N6CCN7c8cc(-c9ccccc9O)nnc8NC[C@@H]7C6)nc5)CC4)ccc3C2=O)C(=O)N1` (stereo partly drawn) [Example 2, 3-(5-(3-(4-(2-((R)-2-(2-hydroxyphenyl)-5,6,6a,7,9,10-hexahydro-8H-pyrazino[1′,2′:4,5]pyrazino[2,3-c]pyridazin-8-yl)pyrimidin-5-yl)piperidin-1-yl)propyl)-1-oxoisoindolin-2-yl)piperidine-2,6-dione], on SMARCA2, the 50% degradation concentration (DC50) was below 0.1 µM and the Dmax was above 75%. At SMARCA4, the DC50 is below 0.1 µM and the Dmax was above 75%.
`O=C1CCC(N2C(=O)c3ccc(N4CCC(N5CCC(N6CCN7c8cc(-c9ccccc9O)nnc8NC[C@H]7C6)CC5)CC4)cc3C2=O)C(=O)N1` (stereo partly drawn) [Example 14, 2-(2,6-dioxopiperidin-3-yl)-5-(4-((S)-2-(2-hydroxyphenyl)-5,6,6a,7,9,10-hexahydro-8H-pyrazino[1′,2′:4,5]pyrazino[2,3-c]pyridazin-8-yl)-[1,4′-bipiperidin]-1′-yl) isoindoline-1,3-dione]: at SMARCA2, the DC50 is below 0.1 µM and the Dmax is above 75%. Also, on SMARCA4, the DC50 was below 0.1 µM and the Dmax is above 75%.
Take `O=C1CCC(N2Cc3cc(CCCN4CCC(CCc5cnc(N6CCN7c8cc(-c9ccccc9O)nnc8NC[C@@H]7C6)nc5)CC4)ccc3C2=O)C(=O)N1` (stereo partly drawn) [Example 3, 3-(5-(3-(4-(2-(2-((R)-2-(2-hydroxyphenyl)-5,6,6a,7,9,10-hexahydro-8H-pyrazino[1′,2′:4,5]pyrazino[2,3-c]pyridazin-8-yl)pyrimidin-5-yl)ethyl)piperidin-1-yl)propyl)-1-oxoisoindolin-2-yl)piperidine-2,6-dione]: at SMARCA2, the DC50 is below 0.1 µM and the Dmax was above 75%. Besides, at SMARCA4, the 50% degradation concentration (DC50) was below 0.1 µM and the Dmax is above 75%.
As for `O=C1CCC(N2Cc3cc(CN4CCC(c5cnc(N6CCN7c8cc(-c9ccccc9O)nnc8NC[C@H]7C6)nc5)CC4)ccc3C2=O)C(=O)N1` (stereo partly drawn) [Example 10, 3-(5-((4-(2-((S)-2-(2-hydroxyphenyl)-5,6,6a,7,9,10-hexahydro-8H-pyrazino[1′,2′:4,5]pyrazino[2,3-c]pyridazin-8-yl)pyrimidin-5-yl)piperidin-1-yl)methyl)-1-oxoisoindolin-2-yl)piperidine-2,6-dione], on SMARCA2, the DC50 is below 0.1 µM and the Dmax was above 75%. At SMARCA4, the 50% degradation concentration (DC50) is below 0.1 µM and the Dmax fell in the range of 50 to 75%.
`O=C1CCC(N2Cc3cc(CN4CCC(OCCN5CCC(N6CCN7c8cc(-c9ccccc9O)nnc8NC[C@H]7C6)CC5)CC4)ccc3C2=O)C(=O)N1` (stereo partly drawn) [Example 9, 3-(5-((4-(2-(4-((S)-2-(2-hydroxyphenyl)-5,6,6a,7,9,10-hexahydro-8H-pyrazino[1′,2′:4,5]pyrazino[2,3-c]pyridazin-8-yl)piperidin-1-yl)ethoxy)piperidin-1-yl)methyl)-1-oxoisoindolin-2-yl)piperidine-2,6-dione]: on SMARCA2, the 50% degradation concentration (DC50) was below 0.1 µM and the Dmax was above 75%. Moreover, at SMARCA4, the DC50 was below 0.1 µM and the Dmax lay within 50 to 75%.
Take `O=C1CCC(n2c3ccc(CCCN4CCC(N5CCN6c7cc(-c8ccccc8O)nnc7NC[C@H]6C5)CC4)cc3c3cccnc32)C(=O)N1` (stereo partly drawn) [Example 19, 3-(6-(3-(4-((S)-2-(2-hydroxyphenyl)-5,6,6a,7,9,10-hexahydro-8H-pyrazino [1′,2′:4,5]pyrazino[2,3-c]pyridazin-8-yl)piperidin-1-yl)propyl)-9H-pyrido[2,3-b]indol-9-yl) piperidine-2,6-dione]: at SMARCA2, the DC50 is below 0.1 µM and the Dmax is above 75%. In addition, on SMARCA4, the half-maximal degradation concentration (DC50) was below 0.1 µM and the Dmax is above 75%.
As for `O=C1CCC(N2C(=O)c3ccc(N4CCN(CCN5CCC(N6CCN7c8cc(-c9ccccc9O)nnc8NC[C@H]7C6)C5)CC4)cc3C2=O)C(=O)N1` (stereo partly drawn) [Example 12, 2-(2,6-Dioxopiperidin-3-yl)-5-(4-(2-(3-((S)-2-(2-hydroxyphenyl)-5,6,6a,7,9,10-hexahydro-8H-pyrazino[1′,2′:4,5]pyrazino[2,3-c]pyridazin-8-yl)pyrrolidin-1-yl)ethyl)piperazin-1-yl) isoindoline-1,3-dione], the DC50 at SMARCA2 and on SMARCA4 was below 0.1 µM throughout. The values for the Dmax on SMARCA2 and at SMARCA4 were above 75% and 50 to 75%, respectively.
As to `O=C1CCC(n2c3ccc(CCCN4CCN(CCN5CCN6c7cc(-c8ccccc8O)nnc7NC[C@H]6C5)CC4)cc3c3cccnc32)C(=O)N1` (stereo partly drawn) [Example 22, 3-(6-(3-(4-(2-((S)-2-(2-hydroxyphenyl)-5,6,6a,7,9,10-hexahydro-8H-pyrazino [1′,2′:4,5]pyrazino[2,3-c]pyridazin-8-yl)ethyl)piperazin-1-yl)propyl)-9H-pyrido[2,3-b]indol-9-yl)piperidine-2,6-dione], the DC50 on SMARCA2 and on SMARCA4 was below 0.1 µM throughout. Also, the Dmax on SMARCA2 and at SMARCA4 was above 75% throughout.
On to `O=C1CCC(N2Cc3cc(CCN4CCC(CCc5cnc(N6CCN7c8cc(-c9ccccc9O)nnc8NC[C@@H]7C6)nc5)CC4)ccc3C2=O)C(=O)N1` (stereo partly drawn) [Example 5, 3-(5-(2-(4-(2-(2-((R)-2-(2-hydroxyphenyl)-5,6,6a,7,9,10-hexahydro-8H-pyrazino[1′,2′:4,5]pyrazino[2,3-c]pyridazin-8-yl)pyrimidin-5-yl)ethyl)piperidin-1-yl)ethyl)-1-oxoisoindolin-2-yl)piperidine-2,6-dione], for which, on SMARCA2, the DC50 was below 0.1 µM and the Dmax is above 75%. Further, on SMARCA4, the 50% degradation concentration (DC50) is below 0.1 µM and the Dmax was above 75%.
In the case of `O=C1CCC(N2Cc3cc(CCN4CCC(/C=C/c5cnc(N6CCN7c8cc(-c9ccccc9O)nnc8NC[C@H]7C6)nc5)CC4)ccc3C2=O)C(=O)N1` (stereo partly drawn) [Example 7, 3-(5-(2-(4-((E)-2-(2-((S)-2-(2-hydroxyphenyl)-5,6,6a,7,9,10-hexahydro-8H-pyrazino[1′,2′:4,5]pyrazino[2,3-c]pyridazin-8-yl)pyrimidin-5-yl)vinyl)piperidin-1-yl)ethyl)-1-oxoisoindolin-2-yl)piperidine-2,6-dione], the DC50 on SMARCA2 and on SMARCA4 was below 0.1 µM each time. In addition, the Dmax on SMARCA2 and on SMARCA4 was above 75% throughout.
Take `O=C1CCC(n2c3ccc(CCCN4CCC(c5cnc(N6CCN7c8cc(-c9ccccc9O)nnc8NC[C@@H]7C6)nc5)CC4)cc3c3cccnc32)C(=O)N1` (stereo partly drawn) [Example 18, 3-(6-(3-(4-(2-((R)-2-(2-hydroxyphenyl)-5,6,6a,7,9,10-hexahydro-8H-pyrazino [1′,2′:4,5]pyrazino[2,3-c]pyridazin-8-yl)pyrimidin-5-yl)piperidin-1-yl)propyl)-9H-pyrido [2,3-b]indol-9-yl)piperidine-2,6-dione]: on SMARCA2, the half-maximal degradation concentration (DC50) was below 0.1 µM and the Dmax is above 75%. For the same compound, at SMARCA4, the DC50 is below 0.1 µM and the Dmax is above 75%.

Values taken from patent US12448389B2, “BRM targeting compounds and associated methods of use” (Prelude Therapeutics Incorporated, priority 2020, dated 2025).
